Data: patent US9018235B2, “Insecticide compositions” (priority 2004, dated 2015)
Read-outs that look alike come from different tables or passages of the source.

Experiments:
Type in all cases: in vivo
Plutella xylostella [1] = assay: Insecticidal effect against Plutella xylostella through plant-root soil drenching of cabbage (Test Example 4); conditions: single compound, plant-root drench, 2-instar larvae
Description: (§1) When the effect obtained by combination of two kinds of the active compounds exceeds the expected value E as calculated by the below-described equation of Colby et al., the synergistic effect is deemed to exist. E=X+Y−X·Y/100 [Equation 2] wherein • E=the death rate of larvae obtained when the active compounds A and B are used at the dose of m and n, respectively; • X=the death rate of larvae when the active compound A is used at the dose of m; • Y=the death rate of larvae when the active compound B is used at the dose of n.
A test compound was dissolved by adding acetone containing 5% of Tween 20 (tradename) at the rate of 0.1 ml per 1 mg of the test compound, and the solution was diluted with ion-exchange water to a total volume of 3 ml. Each of the insecticide solutions prepared was drenched onto the surface of the plant root soil for a cabbage plant grown in a cell tray (with a soil capacity of 24 ml). Four days later, the above-ground part of the plant was cut and placed in a plastic cup, into which 10 heads of 2-instar larvae of Plutella xylostella were released. The cup was kept in a breeding chamber controlled at a constant temperature (25° C.), and the number of living larvae was counted 4 days later. Death rate of larvae=(Number of larvae dead)/(Number of larvae tested)×100 [Equation 5]

Chilo suppressalis = system: Chilo suppressalis
Description: as §1
A test compound was dissolved by adding acetone containing 5% of Tween 20 (tradename) at the rate of 0.1 ml per 1 mg of the test compound, and the insecticide solution prepared by diluting the solution with ion-exchange water to a predetermined concentration was drenched onto the surface of the soil for raising rice seedlings (5 to 6 seedlings/plant as planted in a paper pot) in the 2.5- to 3-leaf stage at the rate of 1 ml per plant. Two days later, the stalks about 2 cm higher above the soil surface were cut and placed in a test tube, into which 10 heads of 3-instar larvae of Chilo suppressalis were released. The test rube was kept in a breeding chamber controlled at a constant temperature (25° C.), and the number of living larvae was counted 4 to 5 days later. Death rate of larvae=(Number of larvae dead)/(Number of larvae tested)×100 [Equation 4]

Plutella xylostella [2] = assay: Insecticidal effect against Plutella xylostella through soaking treatment of cabbage leaf (Test Example 5); conditions: single compound, amount applied 0.0064 mg/plant (as headed), 2-instar larvae
Description: as §1
A test compound was dissolved by adding acetone containing 5% of Tween 20 (tradename) at the rate of 0.1 ml per 1 mg of the test compound, and the insecticide solution was prepared by diluting the solution with an aqueous 5.000-fold diluted DAIN solution to a predetermined concentration. A cabbage leaf was cut off at the site of petiole and soaked in the insecticide solution for several seconds. […] The cup was kept in a breeding room controlled at a constant temperature (25° C.), and the number of dead larvae was counted 4 days later. The death rate of larvae was calculated by the following equation, and the results were shown in Table 8: (Death rate of larvae=(Number of larvae dead)/(Number of larvae tested)×100 [Equation 6]

Spodoptera litura [3] = assay: Insecticidal effect against Spodoptera litura through soaking treatment of soybean roots (Test Example 2); conditions: single compound, soybean root soaking, 3-instar larvae
Description: as §1
A test compound was dissolved by adding acetone containing 5 of Tween 20 (tradename) at the rate of 0.1 ml per 1 mg of the test compound, and the insecticide solution prepared by diluting the solution with ion-exchange water to a predetermined concentration was charged into a light-shielded Erlenmeyer flask (100 ml), into which the root portion of a soybean plant in the stage of development of primary leaves was soaked after being washed with running water to remove soil. Five days after root soaking, two primary leaves were cut off and placed in an ice-cream cup (with a capacity of 180 ml), into which 10 heads of 3-instar larvae were released. The ice-cream cup was kept in a breeding room controlled at a constant temperature (25° C.), and 5 days later, the number of dead larvae was counted. Death rate of larvae=(Number of larvae dead)/(Number of larvae tested)×100 [Equation 3]

Spodoptera litura [4] = assay: Insecticidal effect against Spodoptera litura by soaking treatment of soybean leaves (Test Example 1); conditions: single compound, 0.03 ppm; soybean leaf soaking; 3-instar larvae; 25° C.
Procedure: A test compound was dissolved by addition of acetone containing 5% of Tween 20 (tradename) at the rate of 0.1 ml per 1 mg of the test compound, and after the solution is diluted with aqueous 5,000-fold diluted DAIN solution to a predetermined concentration, soybean leaves after complete development of primary leaves were treated through soaking in the insecticide solution for several seconds. After the insecticide solution was dried, four primary leaves were cut off and placed in an ice-cream cup (with a capacity of 180 ml), in which 10 heads of 3-instra larvae of Spodoptera litura were released. The ice-cream cup was kept in a breeding room controlled at a constant temperature (25° C.), and the number of dead larvae was counted three days later. Death rate of larvae=(Number of larvae dead)/(Number of larvae tested)×100 [Equation 1]
as §1

Cc1cccc(C(=O)NC(C)C)c1NC(=O)c1cc(Cl)nn1-c1ncccc1Cl [Compound (I-3), 2-[1-(3-chloropyridin-2-yl)-3-chloropyrazol-5-ylcarbonylamino]-N-isopropyl-3-methylbenzamide]
Death rate, 4 days later, % (Plutella xylostella [1]; 0.04 mg/plant): 50%

Cc1cccc(C(=O)NC(C)C)c1NC(=O)c1cc(Br)nn1-c1ncccc1Cl [Compound (I-5), 2-[3-bromo-1-(3-chloropyridin-2-yl)pyrazol-5-ylcarbonylamino]-N-isopropyl-3-methylbenzamide]
Death rate, 5 days later, % (Chilo suppressalis; single compound, 0.15 mg/plant, soil drench, rice, 3-instar larvae): 5%

Cc1cc(Cl)cc(C(=O)NC(C)C)c1NC(=O)c1cc(Cl)nn1-c1ncccc1Cl [Compound (I-4), 5-chloro-2-[1-(3-chloropyridin-2-yl)-3-chloropyrazol-5-ylcarbonylamino]-N-isopropyl-3-methylbenzamide]
Death rate, 4 days later, % (Plutella xylostella [2]): 15%

Cc1cc(Cl)cc(C(=O)NC(C)C)c1NC(=O)c1cc(Br)nn1-c1ncccc1Cl [Compound (I-6), 2-[3-bromo-1-(3-chloropyridin-2-yl)-pyrazol-5-ylcarbonylamino]-5-chloro-N-isopropyl-3-methylbenzamide]
Death rate, 5 days later, % (Spodoptera litura [3]; 0.00032 ppm): 0%

CN1COCN(Cc2cnc(Cl)s2)C1=N[N+](=O)[O-] [Thiamethoxam, 3-(2-chloro-1,3-thiazol-5-yl-methyl)-5-methyl-1,3,5-oxa-diazinan-4-ylidene(nitro)amine]
Death rate, 5 days later, % (Spodoptera litura [3]; 0.007 ppm): 0% | Death rate, 4 days later, % (Plutella xylostella [2]): 10%

Cc1cccc(C(=O)NC(C)C)c1NC(=O)c1cc(C(F)(F)F)nn1-c1ncccc1Cl [Compound (I-1), 2-[1-(3-chloropyridin-2-yl)-3-trifluoromethylpyrazol-5-ylcarbonylamino]-N-isopropyl-3-methylbenzamide]
Death rate, 5 days later, % (Spodoptera litura [3]; 0.007 ppm): 55% | Death rate, 4 days later, % (Chilo suppressalis; single compound, 0.01 mg/plant, soil drench, rice, 3-instar larvae): 30%

Cc1cc(Cl)cc(C(=O)NC(C)C)c1NC(=O)c1cc(C(F)(F)F)nn1-c1ncccc1Cl [Compound (I-2), 5-chloro-2-[1-(3-chloropyridin-2-yl)-3-trifluoromethylpyrazol-5-ylcarbonylamino]-N-isopropyl-3-methylbenzamide]
Death rate, 3 days later, % (Spodoptera litura [4]): 30% | Death rate, 4 days later, % (Plutella xylostella [1]; 0.0016 mg/plant): 0%

CNC(=N[N+](=O)[O-])NCC1CCOC1 (racemic) [Dinotefuran, (RS)-1-methyl-2-nitro-3-(tetrahydro-3-furylmethyl)guanidine]
Death rate, 5 days later, % (Chilo suppressalis; in vivo): 0% | Death rate, 4 days later, % (Plutella xylostella [1]; 0.0016 mg/plant): 0% | Death rate, 4 days later, % (Plutella xylostella [1]; 0.04 mg/plant): 10%

CN/C(=N\[N+](=O)[O-])NCc1cnc(Cl)s1 [Clothianidin, (E)-1-(2-chloro-1,3-thiazol-5-ylmethyl)-3-methyl-2-nitroguanidine]
Death rate, 5 days later, % (Spodoptera litura [3]; 0.00032 ppm): 0% | Death rate, 3 days later, % (Spodoptera litura [4]): 0% | Death rate, 4 days later, % (Chilo suppressalis; single compound, 0.001 mg/plant, soil drench, rice, 3-instar larvae): 10%
